From US11850266B2, “Cardiomyocytes and compositions and methods for producing the same” (President and Fellows of Harvard College, priority 2019, dated 2023)

Columns and labels:
Format in all cases: cell-based, human
[1] = tested on: mTORC1 (S6K) and mTORC2 (Akt); experiment: Western analysis of phosphorylation downstream of mTORC1 and mTORC2 in iPSC-derived cardiomyocytes
Method: Beating cardiomyocytes were treated with Torin1 (200 nM, unless otherwise noted) or vehicle (0.02% dimethylsulfoxide (DMSO)) beginning at ˜2 days after onset of beating for 7 days (media changed with fresh Torin1 or DMSO every 2-3 days), unless otherwise noted. After Torin1 treatment, media was switched back to RPMI/B27/insulin and maintained with media change every 2-3 days until endpoint assay.
Cells were lysed with lysis buffer (1% Triton X, 0.35% Na-deoxycholate, 1 mM EDTA, 1% protease inhibitor cocktail (Sigma), 1% phosphatase inhibitor cocktail 2 (Sigma), 1% phosphatase inhibitor cocktail 3 (Sigma), 1 mM phenylmethylsulfonyl fluoride (PMSF)) and total protein was measured with the Pierce BCA Protein Assay Kit. Samples with equal total protein quantities (prepared in Laemmli Sample Buffer (Bio-Rad)) were loaded into a Mini-Protean TGX Precast Gel (Bio-Rad) and electrophoresed for 1 hour at 100 V before transfer to a PVDF membrane using the Trans-Blot Turbo Transfer System (Bio-Rad). The Precision Plus Protein Dual Color Standards molecular weight ladder was used to estimate molecular weight of detected bands (Bio-Rad). Membranes were blocked with 5% milk or bovine serum albumin then incubated with the primary antibody (Table 2) overnight at 4 degrees C. followed by incubation with the horseradish peroxidase-conjugated secondary antibody (Table 2) for 1 hour at room temperature. The Amersham ECL Western Blotting Detection kit was used to detect the protein signal by chemiluminescence, and band densities were quantified using ImageJ software (NIH).

[2] = tested on: iPSC-derived cardiomyocytes; experiment: Imaging quantification of proliferating cardiomyocytes (Ki67, phospho-histone H3); details: versus control, non-dissociated cells, FIG. 8
Excerpt: Cardiomyocytes were differentiated in 12 well plates then fixed and stained in the original plates to minimize potential for selection of cells that survive dissociation. Cells were stained with Ki67/TNNT2/DAPI or phospho-H3/TNNT2/DAPI as described in Immunostaining methods. Images were acquired with a fluorescent microscope. Monolayer regions containing TNNT2+ cells were randomly selected from 5 fields of view in the plate with a 10× objective. The particle analysis feature of ImageJ was used to quantify the number of cells per field of view that were positive for DAPI, Ki67, or pH3. To control for variability across samples, a signal threshold of <500 was set DAPI and pH3 (488 nm) channels and a signal threshold of <600 was set for Ki67 ([…]). Particle sizes between 10-1000 pixels^2 were included in the analysis. The percentage of Ki67+ cells or pH3+ cells out of the total number of cells marked by DAPI and TNNT2 was quantified. A chi-squared test was used to evaluate for statistical significance.

[3] = tested on: iPSC-derived cardiomyocytes; experiment: Seahorse Mito Stress Test and Glycolysis Stress Test
Method: The Seahorse XFe96 Analyzer (Agilent) was used to assess metabolic activity of differentiated cardiomyocytes. Seahorse XFe96 cell culture microplates were coated with Geltrex (1:100 dilution in DMEM:F12). Cardiomyocytes were differentiated as described above then treated with DMSO or Torin1 (200 nM) starting at approximately two days after onset of beating for one week (˜days 9-16 of differentiation for most batches). After treatment, all cells were changed back into RPMI/B27/insulin media until assay preparation (performed at or before day 35 of differentiation). One day prior to assay, cardiomyocytes were dissociated with 0.1% trypsin-EDTA for 5 minutes then neutralized with RPMI/B27/insulin+10% fetal bovine serum (FBS) and plated at a density of 20,000-30,000 cells per well. Cardiomyocytes were maintained in serum-containing medium overnight to facilitate cell adhesion. One hour prior to the assay, the plates were changed to Seahorse assay media (XF Base Medium supplemented with 25 mM glucose, 1 mM sodium pyruvate, and 1 mM GlutaMAX), then incubated at 37 degrees C. in a CO2-free incubator with Seahorse assay media. […] Following measurement of the oxygen consumption rate (OCR) and extracellular acidification rate (ECAR) in response to serial injections of the stress test kit compounds, final cell density was determined using a CyQUANT assay (Thermo Fisher Scientific) to account for cell loss during washes. Cardiomyocytes not used for the Seahorse assay but at a similar day of differentiation were used to create a standard curve for the CyQUANT assay to quantify absolute cell number in order to account for cell loss during washing/mixing steps. OCR values were normalized to absolute cell number determined by the CyQUANT assay. […] Baseline OCR values were calculated by averaging the first three OCR measurements (0-12 minutes) prior to injection of compounds, maximal OCR values were calculated by subtracting the average non-mitochondrial OCR values (OCR following rotenone/[…]) from the OCR values after the injection with the uncoupler FCCP, and respiratory reserve capacity values were calculated by subtracting baseline OCR values from OCR values after addition of FCCP. For the Glycolysis Stress Test, the glycolysis ECAR was calculated by subtracting the average non-glycolytic acidification values (after 2-DG) from the values after glucose administration, the glycolytic capacity was calculated by subtracting the non-glycolytic acidification ECAR values from ECAR values after addition of oligomycin, and the glycolytic reserve was calculated by subtracting the ECAR values after addition of glucose from the ECAR values after addition of oligomycin, according to the manufacturer's instructions.

[4] = tested on: iPSC-derived cardiomyocytes; experiment: Mitochondrial DNA to nuclear DNA ratio, MitoTracker and MitoProbe JC-1 assays
Method: The mitochondrial DNA to nuclear DNA ratio was quantified with qPCR. DNA was extracted from cardiomyocytes using the PureLink genomic DNA mini kit (Invitrogen). Primers for DNA to mitochondrial gene NADH dehydrogenase 1 (ND1) and nuclear gene lipoprotein lipase gene (LPL) were used (10).
Live iPSC-derived cardiomyocytes were stained using MitoTracker Green FM (Invitrogen) or the MitoProbe JC-1 assay kit (Invitrogen) according to the manufacturer's instructions. Cells were evaluated by flow cytometry and mean fluorescence intensity (MFI) of all live cells was quantified. For JC-1, the ratio of red to green MFI for vehicle versus Torin1-treated cells was quantified and normalized to control.

[5] = tested on: iPSC-derived cardiomyocytes; experiment: Calcium transients (Fluo-4 AM) analysis with Vala Kinetic Image Cytometer; details: Torin1 treatment, FIG. 14
Method: To perform calcium transients analysis, 50 ul of 10 ug/ml Hoeschst 33258 and 5 μM Fluo-4 AM was added to each well of a 96 well plate and incubated for 10 minutes at 37 degrees. Media was replaced with RPMI without phenol red supplemented with 1:100 Oxyfluor and 10 uM sodium lactate. Isoproterenol (1 μM) was added to the media for isoproterenol experiments. Pacing protocol was 5 seconds delay without pacing followed by 5 seconds pacing at 1 Hz and 5 seconds imaging without pacing. Imaging was performed using the Vala Kinetic Image Cytometer at 30 fps with 33.30 ms exposure at 14.25 intensity. Stimulation pulse was 5 ms with 15V voltage. Data was collected by CyteSeer analysis program.

[6] = tested on: iPSC-derived cardiomyocytes; experiment: Immunocytochemistry, sarcomere length; details: versus control, BJRiPS-CMs, FIG. 2H
Method: Cells were dissociated from 12 well plates after differentiation with 0.1% trypsin-EDTA and replated into Geltrex-coated 4-chamber microscope slides. Cells were fixed in 4% paraformaldehyde then permeabilized with 0.5% Triton X-100. After blocking with 5% BSA, cells were incubated with primary antibodies (Table 2) for 30 minutes at room temperature followed by incubation with the secondary antibody (Table 2) for 45 minutes at room temperature in the dark. After washing with phosphate buffered saline (PBS), Vectashield mounting agent with DAPI (for slides) or DAPI (for plates) was applied and cells were visualized with a confocal microscope (Zeiss LSM 700). Muscular thin films (MTFs) were stained in a similar manner except DAPI (1 μg/ml) was applied for 5 minutes before rinsing and transferring MTFs into PBS until imaging.

[7] = Torin1 200 nM 7 days, BJRiPS-CMs

CCC(=O)N1CCN(c2ccc(-n3c(=O)ccc4cnc5ccc(-c6cnc7ccccc7c6)cc5c43)cc2C(F)(F)F)CC1 [Torin1]
phosphorylation of AMP kinase (AMPK) ([1]; Torin1 200 nM, 0-48 h, BJRiPS-CMs, FIG. 17B): increased phosphorylation of AMP kinase (AMPK) | phosphorylation of S6K and Akt ([1]; Torin1 200 nM, single treatment, 0-48 h, BJRiPS-CMs): acutely decreased phosphorylation of both S6K and Akt | phosphorylation of ribosomal protein S6 ([1]; Torin1 10, 50, 200 nM at days 25-29 after lactate enrichment, FIG. 28): decreased phosphorylation of S6 | percentage of Ki67+ cardiomyocytes [2]: significantly decreased | percentage of pH3+ cardiomyocytes [2]: did not change | normalized maximal OCR ([3]; Torin1 200 nM 7 days, BJRiPS-CMs, FIG. 3B): significant increase | ECAR from non-glycolytic acidification ([3]; Torin1 200 nM 7 days, FIG. 12C): decrease in ECAR from non-glycolytic acidification | extracellular acidification rate (ECAR) ([3]; Torin1 200 nM 7 days, FIGS. 12A-12B): trend toward decreased | maximal OCR ([3]; Torin1 7 days, Gibco iPSC-derived cardiomyocytes): significantly increases the maximal OCR | MFI of MitoTracker by flow cytometry [4, 7]: decreased MFI | mitochondrial to nuclear DNA ratio [4, 7]: decreased | mitochondrial membrane polarization (MitoProbe JC-1 red:green ratio) ([4]; Torin1 1 week, FIG. 3E): significant increase in mitochondrial membrane polarization | calcium peak rise time, peak decay time and FWHM time [5]: significant decreases | sarcomere length [6]: no differences
